Square brackets hold non-standard residues; d marks the D form. Ends that are not written are not given here. Hyp = O=C(O)[C@@H]1C[C@@H](O)CN1

Test [1] relates to D93 binding to human denatured-collagen IV. Nature of the test: Competition ELISA: synthetic peptides blocking D93 binding to heat denatured collagen IV. On the procedure:
(§1) The ELISA was conducted as follows: wells of a 96-well microtiter plate (Immulon, 4 HBX flat-bottomed, Thermo Electron Corporation, Waltham, Mass.) were coated with 100 μL/well of dn-collagen IV at 10 μg/mL in Phosphate Buffered Saline (PBS) overnight at 4° C. The plate was washed 3 times (3×) with PBS containing 0.05% (v/v) Tween-20 (PBST) using an automated plate washer.
(§2) The plate was blocked by adding 300 μL/well of 1% BSA (w/v) in PBS for 1 hour at 25° C. followed by washing 3× in PBST as above.
(§3) Solutions of D93 or HUI77 were prepared with various concentrations of peptide or antibody inhibitor and incubate for 15 minutes. D93 or HUI77 was prepared at 200 ng/mL in 1% BSA/PBS.
(§4) For antibody blocking studies using synthetic peptides: peptide inhibitor stock solutions were prepared at 2 mM, 0.2 mM, 0.02 mM, and 0.002 mM in 1% BSA/PBS. 500 μL of a 2 mM peptide solution in 1% BSA/PBS was prepared and diluted 1:10 in 500 μL a total of three times to make peptide inhibitor concentrations.
(§5) 200 μL of D93 or HUI77 at 200 ng/mL solution was combined with 200 μL of peptide or antibody inhibitor solution and incubated for 15 minutes at room temperature.
(§6) D93 or HUI77 with various concentrations of inhibitors (2 mM, 0.2 mM, 0.02 mM, and 0.002 mM) were added to microplate wells and incubated for 1 hour at 25° C. The plate was washed 3× in PBST as above.
(§7) To each microtiter plate well, 100 μL of diluted anti-human IgG or anti-mouse IgM conjugated to horseradish peroxidase (HRP) in PBST was added and incubated for one hour at 25° C.: (a) for D93: Goat anti-human IgG-HRP (Jackson ImmunoResearch, Catalog No. 109-035-088) was used at 1:20,000 and (b) for HUI77: Goat anti-mouse IgM-HRP was used at 1:4,000. Plates were washed 3× in PBST as above.
(§8) Tetramethylbenzidine (TMB) substrate (100 μL; Pierce Chemicals)) was added to wells and the plates were allowed to develop at room temperature for 15 minutes in the dark. Substrate development was stopped by adding 50 μL/well of 2N H2SO4. The microtiter […] plates were read at 450 nm within five minutes of adding the H2SO4. Reactivity was measured with a microplate reader (Molecular Devices, Sunnyvale, Calif.) at a wavelength of 450 nm and analyzed using SOFTMax® PRO4.0 (Molecular Devices). All samples were tested in triplicate.
(§9) Individual peptides with amino acid substitutions and deletions were also synthesized based on the primary and secondary peptide arrays. […] The inhibitory activity of the individual peptides was tested by ELISA as previously described to measure binding of D93 or HUI77 to denatured collagen where peptides and antibodies were prepared at a 2× concentration and pre-incubated for 15 minutes prior to adding to microtiter plates coated with dn-collagen.
(§10) 96-well plates were coated with 100 μL/well of denatured (dn) collagen IV at 10 μg/mL in phosphate buffered saline (PBS) overnight at 4° C. followed by washing the plates in an automated plate washer 3 times in PBS containing 0.05% (v/v) Tween-20 (PBST). Non-specific binding was prevented by blocking the wells by adding 300 μL/well of 1% bovine serum albumin (BSA) (w/v) in PBS for 1 hour (hr) at 25° C. The plates were washed as above.
(§11) Solutions of D93 and HUI77 antibodies were prepared with various concentrations of inhibitor and incubated for 15 minutes. Briefly, 20 mLs of D93 or HUI77 were prepared at 200 ng/mL in 1% BSA/PBS. Solutions of peptide inhibitors (2 mM, 0.2 mM, […]) were prepared in 1% BSA/PBS. Equal volumes of antibodies and peptide inhibitors were combined: 200 μL of D93 or HUI77 (200 ng/mL solution) with 200 μL of each peptide solution.
(§12) 100 μL/well of D93 or HUI77 at 100 ng/mL with various concentrations of inhibitors were added to the wells in triplicate and incubated for 1 hour at 25° C. The plates were washed as described above.
(§13) 100 μL/well of secondary horseradish peroxidase (HRP)-conjugated antibody in PBST was added to each well and incubated for 1 hour (hr) at 25° C. […]
A general note: ELISA stands for enzyme-linked immunosorbent assay.

Test [2] relates to HUI77 binding to denatured collagen IV. Nature of the test: Competition ELISA: synthetic peptides blocking HUI77 binding to heat denatured collagen IV. Also noted: species or system human. How it is done: as §1, §2, §3, §4, §5, §6, §7, §8, §9, §10, §11, §12, §13
The mark [3] stands for this setting: peptide inhibitor concentration 1 μM, average of two studies, vs 1% BSA/PBS alone.
[4] abbreviates: peptide inhibitor concentration 10 μM, average of two studies, vs 1% BSA/PBS alone.
Where [5] appears, read: peptide inhibitor concentration 100 μM, average of two studies, vs 1% BSA/PBS alone.
Setting [6] is: peptide inhibitor concentration 1000 μM, average of two studies, vs 1% BSA/PBS alone.
The mark [7] stands for this setting: peptide inhibitor concentration 10 μM, average of two studies.
[8] abbreviates: peptide inhibitor concentration 100 μM, average of two studies.
[9] abbreviates: peptide inhibitor concentration 1000 μM, average of two studies.
Setting [10] is: peptide inhibitor concentration 1000 μM, asterisk (*): data from a separate assay.

For G-P-Hyp-G (GP[Hyp]G) [SEQ ID NO: 34], the “% INHIBITION OF BINDING OF D93 TO HUMAN DENATURED-COLLAGEN IV” value in test [1] (setting [3]) is listed as 9.5%; in test [1] (setting [4]), 6.5%; in test [1] (setting [5]), 11%; in test [1] (setting [6]), 52%. Besides, the entries for the “% INHIBITION OF BINDING OF HUI77 TO DENATURED COLLAGEN IV” value in test [2] (setting [7]), in test [2] (setting [8]) and in test [2] (setting [9]) were 6.5%, 9% and 14%, respectively.
Regarding “F-Hyp-G-P-Hyp-G-P-D-G-L-P-G-S-M-G-P-Hyp-G (F[Hyp]GP[Hyp]GPDGLPGSMGP[Hyp]G) [SEQ ID NO: 36]”, the “% INHIBITION OF BINDING OF D93 TO HUMAN DENATURED-COLLAGEN IV” value was 11% in test [1] (setting [3]), 43% in test [1] (setting [4]), 89.5% in test [1] (setting [5]) and 93.5% in test [1] (setting [6]). The “% INHIBITION OF BINDING OF HUI77 TO DENATURED COLLAGEN IV” value in test [2] (setting [7]) came to 4.5%; in test [2] (setting [8]) it was 9%; in test [2] (setting [9]), 62%.
Take GPPG [SEQ ID NO: 35]: the “% INHIBITION OF BINDING OF D93 TO HUMAN DENATURED-COLLAGEN IV” value is recorded as 7% in test [1] (setting [3]), 6% in test [1] (setting [4]), 3.5% in test [1] (setting [5]) and 7.5% in test [1] (setting [6]). The “% INHIBITION OF BINDING OF HUI77 TO DENATURED COLLAGEN IV” value in test [2] (setting [7]) amounted to 2.5%; in test [2] (setting [8]), 8%; in test [2] (setting [9]) it was 3.5%.
Regarding LPGPPGPPGPY [SEQ ID NO: 18], the “% INHIBITION OF BINDING OF D93 TO HUMAN DENATURED-COLLAGEN IV” value worked out at 6% in test [1] (peptide inhibitor concentration 1 μM, average of two studies, vs 1% BSA/PBS alone, listed as 2 (18), 1 µM); 2% in test [1] (peptide inhibitor concentration 10 μM, average of two studies, vs 1% BSA/PBS alone, listed as 2 (18), 10 µM); 7% in test [1] (peptide inhibitor concentration 100 μM, average of two studies, vs 1% BSA/PBS alone, listed as 2 (18), 100 µM); 46% in test [1] (peptide inhibitor concentration 1000 μM, average of two studies, vs 1% BSA/PBS alone, listed as 2 (18), 1000 µM). The “% INHIBITION OF BINDING OF HUI77 TO DENATURED COLLAGEN IV” value in test [2] (peptide inhibitor concentration 10 μM, average of two studies, listed as 2 (18), 10 µM) worked out at 5.5%; in test [2] (peptide inhibitor concentration 100 μM, average of two studies, listed as 2 (18), 100 µM) it was 6.5%; in test [2] (peptide inhibitor concentration 1000 μM, average of two studies, listed as 2 (18), 1000 µM) it was 4.5%.
Regarding “CTWPRHHTTDALL [SEQ ID NO: 39, reference compound]”, the “% INHIBITION OF BINDING OF D93 TO HUMAN DENATURED-COLLAGEN IV” value in test [1] (setting [3]) was 4.5%; in test [1] (setting [4]) it was 1%; in test [1] (setting [5]) it was 0%; in test [1] (setting [10]) it was 4.9%; in test [1] (setting [6]) it was 3.5%. The “% INHIBITION OF BINDING OF HUI77 TO DENATURED COLLAGEN IV” value in test [2] (setting [7]) is 6.5%; in test [2] (setting [8]) it was 6.5%; in test [2] (setting [10]), 11.1%; in test [2] (setting [9]) it was 6.5%.
Consider “PGPPGPPGPY (PGP[Hyp]GP[Hyp]GPY) [SEQ ID NO: 28]”, for which the “% INHIBITION OF BINDING OF D93 TO HUMAN DENATURED-COLLAGEN IV” value in test [1] (setting [3]) is listed as 33.5%; in test [1] (setting [4]), 83%; in test [1] (setting [5]), 93.5%; in test [1] (setting [6]), 93.5%. The figures for the “% INHIBITION OF BINDING OF HUI77 TO DENATURED COLLAGEN IV” value in test [2] (setting [7]), in test [2] (setting [8]) and in test [2] (setting [9]) were 7%, 16% and 86.5%, respectively.
Turning to “L-Hyp-G-P-Hyp-G (L[Hyp]GP[Hyp]G) [SEQ ID NO: 24]”, the “% INHIBITION OF BINDING OF D93 TO HUMAN DENATURED-COLLAGEN IV” value in test [1] (setting [3]) was 6.5%; in test [1] (setting [4]), 12%; in test [1] (setting [5]), 52.5%; in test [1] (setting [6]), 90%. The “% INHIBITION OF BINDING OF HUI77 TO DENATURED COLLAGEN IV” value in test [2] (setting [7]) was determined as 3%; in test [2] (setting [8]), 8%; in test [2] (setting [9]) it was 64%.
Take “LPGFPGC [SEQ ID NO: 37, reference compound]”: the “% INHIBITION OF BINDING OF D93 TO HUMAN DENATURED-COLLAGEN IV” value is 8% in test [1] (setting [3]), 3.5% in test [1] (setting [4]), 1% in test [1] (setting [5]) and 6.5% in test [1] (setting [6]). Moreover, the “% INHIBITION OF BINDING OF HUI77 TO DENATURED COLLAGEN IV” value came out at 7% in test [2] (setting [7]), 7.5% in test [2] (setting [8]) and 8.5% in test [2] (setting [9]).
Consider “PGPPGPPGP (PGP[Hyp]GP[Hyp]GP) [SEQ ID NO: 29]”, for which the “% INHIBITION OF BINDING OF D93 TO HUMAN DENATURED-COLLAGEN IV” value in test [1] (setting [3]) was 11.5%; in test [1] (setting [4]), 40.5%; in test [1] (setting [5]) it was 87.5%; in test [1] (setting [6]), 93.5%. Further, the “% INHIBITION OF BINDING OF HUI77 TO DENATURED COLLAGEN IV” value in test [2] (setting [7]) was 10.5%; in test [2] (setting [8]) it was 12.5%; in test [2] (setting [9]), 63%.
Consider LPGTPG (L[Hyp]GT[Hyp]G) [SEQ ID NO: 27], for which the “% INHIBITION OF BINDING OF D93 TO HUMAN DENATURED-COLLAGEN IV” value is 7% in test [1] (setting [3]), 2% in test [1] (setting [4]), 4.5% in test [1] (setting [5]) and 24% in test [1] (setting [6]). Moreover, the “% INHIBITION OF BINDING OF HUI77 TO DENATURED COLLAGEN IV” value in test [2] (setting [7]) was found to be 3.5%; in test [2] (setting [8]) it was 4.5%; in test [2] (setting [9]) it was 6%.
On to “GPPGPPGP (GPXGPXGP; MOD_RES (3) Hydroxyproline; MOD_RES (6) Hydroxyproline) [SEQ ID NO: 31]”, for which the “% INHIBITION OF BINDING OF D93 TO HUMAN DENATURED-COLLAGEN IV” value worked out at 9.5% in test [1] (setting [3]), 21% in test [1] (setting [4]), 77% in test [1] (setting [5]) and 92.5% in test [1] (setting [6]). Further, the “% INHIBITION OF BINDING OF HUI77 TO DENATURED COLLAGEN IV” value in test [2] (setting [7]) was determined as 7.5%; in test [2] (setting [8]), 12%; in test [2] (setting [9]) it was 44%.

The values above are taken from patent publication US20080008707A1, “Denatured collagen peptides and uses thereof” (Cell-Matrix, Inc., priority 2006, published 2008).
